Experimental data reported in article PMC8029449 (ACS chemical neuroscience, 2021).

Experiments:
[1] = tested on: VEGFR2 phosphorylation at Y1175 in CAD cells; assay: In cell western for inhibition of VEGFR2 activation by VEGF-A165; type: cell-based, mouse; settings: compounds at 12.5 μM, 1 nM VEGF-A165, 1 hour
VSV-eGFP-SARS-CoV-2 = type: cell-based, vesicular stomatitis virus; settings: 25 µM

## NC(N)=NCCC[C@H](NC(=O)c1sccc1NS(=O)(=O)c1cccc2nsnc12)C(=O)O [Compound A]
[1]
  block of VEGF-A stimulated increased phosphorylation of VEGFR2 (pY1175): blocked
VSV-eGFP-SARS-CoV-2
  inhibition of VSV-eGFP-SARS-CoV-2 entry into cells: ineffective
